Results as given in US5118682A, “p-Hydroxy phenone derivatives and the use thereof” (BASF Aktiengesellschaft, priority 1988, dated 1992).
Where a name gives a salt, the structure may show the parent alone.

What was measured:
QT interval = assay: class III antiarrhythmic action in guinea-pigs after intravenous administration (increase in QT interval, ECG); assay type: in vivo, guinea-pigs (Pirbright white); conditions: i.v.; for Rel. action ED20 (D-sotalol)/ED20 (example): guinea-pigs, potency relative to D-sotalol = 1; for ED20: Cavia porcellus, iv, read-out: Increase in QT interval ED 20%
Description: The experimental animals are male and female Pirbright white guinea-pigs weighing from 300 to 500 g. They are anaesthetized with 1.5 g/kg urethane i.p. The substances are administered intravenously. The ECG conduction times and the heart rate are measured from a recording from extremity lead II. […] The criterion of a class III action is an increase in the QT interval compared with the values before administration of the substance. An increase in PQ and a large decrease in the heart rate serve as exclusion criteria.

[1] = test system: arrhythmias which are otherwise resistant to therapy, especially reentry arrhythmias; conditions: Circulation 68 (1983); Am. Heart J. 109 (1985); J. Clin. Pharmacol. 27 (1987); cited from earlier work
[2] = anaesthetized guinea-pigs (urethane 1.5 g/kg i.p.), ECG extremity lead II, 4 to 6 animals per dose, dose for 20% increase in QT interval, calculated from log dose-response

Row | Compound | Increase in QT interval ED 20% (QT interval; [2]) [mg/kg] | Rel. action ED20 (D-sotalol)/ED20 (example) (QT interval) | therapeutic advantage of class III antiarrhythmics reported in the literature [1] | ED20 (QT interval; [2]) [mg/kg]
1 | 3',4'-Dimethyl-4'-(2-(1-pyrrolidinyl)ethoxy)-4-methoxychalcone fumarate [Example 24] | 0.95 | 3.8 | – | –
2 | CC(C)NCC(O)c1ccc(NS(C)(=O)=O)cc1 (single isomer, unassigned) [D-sotalol, reference compound] | – | – | acting against arrhythmias which are otherwise resistant to therapy | 3.6
3 | Cc1ccccc1/C=C/C(=O)c1cc(C)c(OCCN2CCCC2)c(C)c1 [Example 1, 3',5'-Dimethyl-4,-(2-(1-pyrrolidinyl)ethoxy)-2-methylchalcone tosylate] | – | 4.9 | – | 0.74
4 | Cc1ccccc1/C=C/C(=O)c1cc(C)c(OCCN2CCCCC2)c(C)c1.O=C(O)/C=C/C(=O)O [Example 2, 3',5'-Dimethyl-4'-(2-(1-piperidinyl)ethoxy)-2-methylchalcone fumarate] | – | 4.7 | – | 0.76
5 | CCN(CC)CCOc1c(C)cc(C(=O)/C=C/c2ccccc2C)cc1C.O=C(O)/C=C/C(=O)O [Example 3, 4'-(2-Diethylaminoethoxy)-3',5'-dimethyl-2-methylchalcone fumarate] | – | 5.5 | – | 0.65
6 | Cc1ccccc1/C=C/C(=O)c1cc(C)c(OCCCN2CCCC2)c(C)c1.O=C(O)/C=C/C(=O)O [Example 4, 3',5'-Dimethyl-4'-(3-(1-pyrrolidinyl)propoxy)-2-methylchalcon fumarate] | – | 4.0 | – | 0.89
7 | CCN(CC)CCOc1c(C)cc(C(=O)Cc2ccc(OC)cc2)cc1C [Example 10, 4'-(2-Diethylaminoethoxy)-3',5'-dimethyl-4-methoxydeoxybenzoin] | – | 2.7 | – | 1.31
8 | CCc1ccccc1C=CC(=O)c1cc(C)c(OCCN2CCCC2)c(C)c1 [Example 12, 3',5'-Dimethyl-4,-(2-(1-pyrrolidinyl)ethoxy)-2-ethylchalcone fumarate] | – | 4.9 | – | 0.74
9 | COc1ccccc1/C=C/C(=O)c1cc(C)c(OCCN2CCCC2)c(C)c1.O=C(O)/C=C/C(=O)O [Example 13, 3',5'-Dimethyl-4'-(2-(1-pyrrolidinyl)ethoxy)-2-methoxychalcone fumarate] | – | 5.4 | – | 0.67
10 | COc1ccc(C=CC(=O)c2cc(C)c(OCCN3CCCC3)c(C)c2)c(C)c1 [Example 15, 3',5'-Dimethyl-4'-(2-(1-pyrrolidinyl)ethoxy)-4-methoxy-2-methylchalconeoxalate] | – | 2.4 | – | 1.5
11 | COc1ccccc1/C=C/C(=O)c1cc(C)c(OCCN2CCCCC2)c(C)c1.Cl [Example 17, 3',5'-Dimethyl-4'-(2-(1-piperidinyl)ethoxy)-2-methoxychalcone hydrochloride] | – | 2.1 | – | 1.69
12 | CCc1ccccc1C=CC(=O)c1cc(C)c(OCCN2CCOCC2)c(C)c1 [Example 18, 3',5'-Dimethyl-4'-(2-(1-morpholinyl)ethoxy)-2-ethylchalcone hydrochloride] | – | 2.4 | – | 1.5
13 | COc1ccc(/C=C/C(=O)c2cc(C)c(OCCN3CCCCC3)c(C)c2)c(C)c1.O=C(O)/C=C/C(=O)O [Example 20, 3',5'-Dimethyl-4'-(2-(1-piperidinyl)ethoxy)-4-methoxy-2-methylchalcone fumarate] | – | 4.9 | – | 0.73
14 | Cc1ccccc1CCC(=O)c1cc(C)c(OCCN2CCCC2)c(C)c1 [Example 25, 3,5-Dimethyl-4-(2-(1-pyrrolidinyl)ethoxy)-3'-(2-tolyl)-propiophenone fumarate] | – | 4.6 | – | 0.79
15 | COc1ccccc1CCC(=O)c1cc(C)c(OCCN2CCCCC2)c(C)c1 [Example 27, 3,5-Dimethyl-3'-(2-methoxyphenyl)-4-(2-(piperidinyl)ethoxy)propiophenone fumarate] | – | 3 | – | 1.2
16 | CCc1ccccc1CCC(=O)c1cc(C)c(OCCN2CCCCC2)c(C)c1 [Example 32, 3,5-Dimethyl-3'-(2-ethylphenyl)-4-(2-(1-piperidinyl)ethoxy)propiophenone f umarate] | – | 2.2 | – | 1.62
17 | CCCCc1oc2ccccc2c1C(=O)c1cc(I)c(OCCN(CC)CC)c(I)c1 [amiodarone] | – | – | acting against arrhythmias which are otherwise resistant to therapy | –
